Laboratory results published in US20090311246A1, “Method of Enhancing Remyelination in Demyelinating Diseases of the Central Nervous System” (priority 2008, published 2009).

Experiments:
B6 mice = conditions: ref. (4); cited from earlier work
[1] = test system: sera from SFV-infected B6 mice; format: binding; conditions: for Dh / D0 (Ratio): OD of highest day (day 15 or 21) over day 0, SFV-infected sera; for Dh−D0 (difference): OD of highest day minus day 0, SFV-infected sera; for Net change in the levels of antibody (ΔOD), D7-9 / Net change in the levels of antibody (ΔOD), D14-16 / Net change in the levels of antibody (ΔOD), D21-23 / Net change in the levels of antibody (ΔOD), D31-35: SFV-infected mice sera, day 0 OD subtracted; for Net change in the levels of antibody (ΔOD), D7-9: days 7-9 pi; for Net change in the levels of antibody (ΔOD), D14-16: days 14-16 pi; for Net change in the levels of antibody (ΔOD), D21-23: days 21-23 pi; for Net change in the levels of antibody (ΔOD), D31-35: days 31-35 pi; for Reactivity of sera from SFV-infected B6 mice with the antigen in ELISA: vs day 0
Protocol: To measure the antibody response of both WT and γδ KO mice against SFV and two of the peptides of the SFV envelope protein, E2, an indirect ELISA was performed. Sera were pooled from 4-6 SFV-infected WT, and 3 KO, mice on days 0, 7, 14, 21 and 35 pi. Briefly, Immunolon 2HB 96 well microtiter plates (VWR, Bridge Port, N.J.) were coated with 1 μg/well of each antigen in 100 μl/well carbonate buffer overnight at room temperature. After washing, the plates were blocked and serum samples were added. […] After washing, biotinylated goat anti-mouse Igs (BD Pharmingen, Torreyana, Calif.), Strepavidin conjugated to Horse Radish Peroxidase (Vector Laboratories, Burlingame, Calif.), and OPD substrate (Sigma, St. Louis, Mo.) were used, as previously described (4, 9). […] Values were considered to be positive when they were >0.3 OD units and exceeded the mean value plus three standard deviations for antibody response on day 0 pi of mice of the same strain. […]
In some instances day 0 OD values were high, thus making the differences appear small. Therefore, to account for such discrepancy, we also determined the ratio of the highest day (day 15 or 21) over day 0.

[2] = test system: sera from SFV-infected WT and γδ KO mice; test: ELISA of sera from SFV-infected WT and γδ KO mice against SFV, E2 peptides, PPD and rMOG; format: binding
Normal Rabbit Serum = test: Indirect ELISA of normal rabbit serum/IgG against viral and myelin antigens; format: binding; conditions: 10^−2 diluted
[3] = test system: Rabbit Anti-SFV polyclonal antibody; test: Indirect ELISA of rabbit anti-SFV polyclonal IgG against viral and myelin antigens; format: binding; conditions: for Rabbit Anti-SFV Ab, OD at 490 nm: 10^−2 diluted, indirect ELISA; for Immunoreactivity of IgG fraction of serum from rabbits immunized with UV-inactivated SFV: ELISA; for OD Difference: Rabbit Anti-SFV Ab minus Normal Rabbit Serum
Protocol: The total IgG fraction was commercially prepared (Strategic Biosolutions, Ramona, Calif.) from pooled sera of 3 rabbits immunized once with UV-inactivated SFV (A774 strain) emulsified in CFA and boosted 3 times with antigen in IFA at weeks 3, 5, and 7. The IgG fraction of the pooled antisera was purified by ion-exchange chromatography and contained 8.7 mg IgG/ml of PBS. Antibody activities to SFV and peptides of SFV, to E2, and to recombinant ® MOG and its peptides were confirmed by ELISA. Normal rabbit IgG, isolated from pooled normal rabbit sera by ion-exchange chromatography (Signa Chemical Co., St. Louis, Mo.), was dissolved in saline. Protein concentration was determined by the Bradford assay (Sigma), using normal rabbit IgG as the standard. The IgG solutions were diluted to 3 mg protein/ml in saline and sterilized by passage through a 0.22 μm filter (Millipore Corp., Bedford, Mass.).
To measure the antibody response of both WT and γδ KO mice against SFV and two of the peptides of the SFV envelope protein, E2, an indirect ELISA was performed. Sera were pooled from 4-6 SFV-infected WT, and 3 KO, mice on days 0, 7, 14, 21 and 35 pi. Briefly, Immunolon 2HB 96 well microtiter plates (VWR, Bridge Port, N.J.) were coated with 1 μg/well of each antigen in 100 μl/well carbonate buffer overnight at room temperature. After washing, the plates were blocked and serum samples were added. […] After washing, biotinylated goat anti-mouse Igs (BD Pharmingen, Torreyana, Calif.), Strepavidin conjugated to Horse Radish Peroxidase (Vector Laboratories, Burlingame, Calif.), and OPD substrate (Sigma, St. Louis, Mo.) were used, as previously described (4, 9). […] Values were considered to be positive when they were >0.3 OD units and exceeded the mean value plus three standard deviations for antibody response on day 0 pi of mice of the same strain.
The polyclonal rabbit anti SFV antibody was commercially prepared (Strategic Biosolutions, Ramona, Calif.) from pooled sera of 3 rabbits, immunized once with UV-inactivated SFV (A774 strain) emulsified in CFA and boosted 3 times with antigen in IFA at weeks 3, 5, and 7.

| Molecule | Dh / D0 (Ratio) [1] | Dh−D0 (difference) [1] | Net change in the levels of antibody (ΔOD), D7-9 [1] | Net change in the levels of antibody (ΔOD), D14-16 [1] | Net change in the levels of antibody (ΔOD), D21-23 [1] | Net change in the levels of antibody (ΔOD), D31-35 [1] | Reactivity of sera from SFV-infected B6 mice with the antigen in ELISA [1] | Normal Rabbit Serum, OD at 490 nm (Normal Rabbit Serum) [OD] | Rabbit Anti-SFV Ab, OD at 490 nm [3] [OD] | OD Difference [3] [OD] | also measured |
| --- | --- | --- | --- | --- | --- | --- | --- | --- | --- | --- | --- |
| H-IQDTRNAVRACRIQYHHD-OH [E2 115-129, reference compound] | 5.28 | 0.458 | 0.82 ± 0.40 ΔOD | 0.91 ± 0.14 ΔOD | 0.95 ± 0.22 ΔOD | 0.85 ± 0.07 ΔOD | reacted |  |  |  | Histopathology after inoculation with the peptide (literature) (B6 mice): induced vaccuolation in myelin; Net change in the level of antibody, D0 WT ([2]; WT mice, day 0): 0 nano gr; Net change in the level of antibody, D7 WT ([2]; WT mice, day 7 pi, ± SD): 69 ± 29 nano gr; Net change in the level of antibody, D14 WT ([2]; WT mice, day 14 pi, ± SD): 83 ± 16 nano gr; Net change in the level of antibody, D21 WT ([2]; WT mice, day 21 pi, ± SD): 90 ± 20 nano gr; Net change in the level of antibody, D35 WT ([2]; WT mice, day 35 pi, ± SD): 73 ± 14 nano gr; Net change in the level of antibody, D0 KO ([2]; γδ KO mice, day 0): 0 nano gr; Net change in the level of antibody, D7 KO ([2]; γδ KO mice, day 7 pi, ± SD): 65 ± 35 nano gr; Net change in the level of antibody, D14 KO ([2]; γδ KO mice, day 14 pi, ± SD): 34 ± 24 nano gr; Net change in the level of antibody, D21 KO ([2]; γδ KO mice, day 21 pi, ± SD): 55 ± 20 nano gr; Net change in the level of antibody, D35 KO ([2]; γδ KO mice, day 35 pi, ± SD): 29 ± 22 nano gr; Reactivity of sera from SFV-infected γδ KO mice ([2]; γδ KO, sera 1:80): lower, but not significantly different than WT |
| DEAELPSRISPGKNA [MOG 18-32] | 3.2 | 0.919 | 0.34 ± 0.31 ΔOD | 0.75 ± 0.23 ΔOD | 0.91 ± 0.15 ΔOD | 0.91 ± 0.36 ΔOD | reacted significantly | 0.260 | 0.907 | 0.647 | Immunoreactivity of IgG fraction of serum from rabbits immunized with UV-inactivated SFV [3]: Cross-reactivity |
| NH2-MEVGWYRSPFSRVVHLYRNGK-OH (H-MEVGWYRSPFSRVVHLYRNGK-OH) [MOG 35-55, myelin oligodendrocyte glycoprotein (MOG) peptide 35-55] | 5.11 | 0.362 | 055 ± 0.08 ΔOD | 0.78 ± 0.08 ΔOD | 0.82 ± 0.05 ΔOD | 0.78 ± 0.07 ΔOD |  | 0.007 | 0.184 | 0.177 |  |
| THYGSLPQKSQR (GSGKDSHTRTTH) [MBP 64-75, myelin basic protein peptide 64-75] | 2.93 | 0.375 |  |  |  |  |  |  |  |  |  |
| EGVNDNEEGFFSAR [FB, Fibrinopeptide B, 1-14, negative control peptide] | 1.26 | 0.068 | 0.06 ± 0.07 ΔOD | 0.05 ± 0.07 ΔOD | 0.05 ± 0.08 ΔOD | 0.08 ± 0.09 ΔOD |  |  |  |  |  |
| GKDSHTRTTHYGS [MBP 56-68, mouse MBP 56-68 peptide, mimicked by E2 137-151] | 5.37 | 0.824 | 1.10 ± 0.04 ΔOD | 0.83 ± 0.10 ΔOD | 1.07 ± 0.12 ΔOD | 0.55 ± 0.18 ΔOD | reacted significantly | 0.195 | 0.852 | 0.691 | Immunoreactivity of IgG fraction of serum from rabbits immunized with UV-inactivated SFV [3]: Cross-reactivity |
| Bovine MBP: bovine myelin basic protein (protein) AAQKRPSQRSKYLASASTMDHARHGFLPRHRDTGILDSLGRFFGSDRGAPKRGSGKDGHHAARTTHYGSLPQKAQGHRPQDENPVVHFFKNIVTPRTPPPSQGKGRGLSLSRFSWGAEGQKPGFGYGGRASDYKSAHKGLKGHDAQGTLSKIFKLGGRDSRSGSPMARR |  |  |  |  |  |  |  | 0.283 | 0.622 | 0.339 |  |
| rMOG: recombinant MOG (protein, UniProt Q16653 30-247, looked up) Myelin-oligodendrocyte …: GQFRVIGPRHPIRALVGDEVELPCRISPGKNATGMEVGWYRPPFSRVVHLYRNGKDQDGDQAPEYRGRTELLKDAIGEGKVTLRIRNVRFSDEGGFTCFFRDHSYQEEAAMELKVEDPFYWVSPGVLVLLAVLPVLLLQITVGLIFLCLQYRLRGKLRAEIENLHRTFDPHFLRVPCWKITLFVIVPVLGPLVALIICYNWLHRRLAGQFLEELRNPF |  |  |  |  |  |  |  | 0.213 | 0.359 | 0.146 | Reactivity of sera from both SFV-infected WT and KO groups ([2]; WT and KO, days 7 to 35 pi): twice as the background level |
| MOG Protein: myelin oligodendrocyte glycoprotein (protein, UniProt Q16653 30-247, looked up) Myelin-oligodendrocyte …: GQFRVIGPRHPIRALVGDEVELPCRISPGKNATGMEVGWYRPPFSRVVHLYRNGKDQDGDQAPEYRGRTELLKDAIGEGKVTLRIRNVRFSDEGGFTCFFRDHSYQEEAAMELKVEDPFYWVSPGVLVLLAVLPVLLLQITVGLIFLCLQYRLRGKLRAEIENLHRTFDPHFLRVPCWKITLFVIVPVLGPLVALIICYNWLHRRLAGQFLEELRNPF | 4.1 | 0.89 | 0.47 ± 0.21 ΔOD | 0.84 ± 0.18 ΔOD | 0.91 ± 0.11 ΔOD | 0.96 ± 0.07 ΔOD | reacted significantly |  |  |  |  |
| MBP Protein: myelin basic protein (protein, UniProt P02686 1-304, looked up) Myelin basic protein: MGNHAGKRELNAEKASTNSETNRGESEKKRNLGELSRTTSEDNEVFGEADANQNNGTSSQDTAVTDSKRTADPKNAWQDAHPADPGSRPHLIRLFSRDAPGREDNTFKDRPSESDELQTIQEDSAATSESLDVMASQKRPSQRHGSKYLATASTMDHARHGFLPRHRDTGILDSIGRFFGGDRGAPKRGSGKDSHHPARTAHYGSLPQKSHGRTQDENPVVHFFKNIVTPRTPPPSQGKGRGLSLSRFSWGAEGQRPGFGYGGRASDYKSAHKGFKGVDAQGTLSKIFKLGGRDSRSGSPMARR | 2.42 | 0.967 | 0.53 ± 0.11 ΔOD | 1.04 ± 0.24 ΔOD | 1.12 ± 0.31 ΔOD | 1.00 ± 0.32 ΔOD | reacted significantly |  |  |  |  |
